Measured values from patent publication US7462642B2, “Anti-cancer combinations” (Cancer Research Technology Limited, priority 2003, dated 2008).
“Also recorded” adds a separate entry of the source. Like-named read-outs stand apart in the source and are kept apart here.

Tests used:
colon 38 tumours = assay: Tumour growth delay assay; format: in vivo, C57B1/6 mice
Experimental: C57B1/6 mice from the Animal Resource Unit, University of Auckland, were bred and housed under conditions of constant temperature and humidity, with sterile bedding and food, according to institutional ethical guidelines. All mice were aged between 8 and 12 weeks.
(§1) DMXAA was synthesized as the sodium salt (Rewcastle et al (1990) Journal of National Cancer Institute 82:528-529). DMXAA sodium salt was dissolved in sterile water and 25 mg/kg in a volume of 0.1 ml per 10 g body weight was injected intraperitoneally (i.p.) into mice.
Diclofenac (Sigma) was dissolved in dimethylsulphoxide, and was injected i.p. into mice in a volume of 25 μl per 10 g body weight. […]
Colon 38 tumour fragments (˜1 mm^3) were implanted subcutaneously (s.c.) in the left flank of anaesthetized (sodium pentobarbital, 81 mg/kg) mice. […] Tumour-bearing mice were treated with drugs according to the administration schedule described before, and the tumours measured using calipers, three times weekly thereafter. Tumour volumes were calculated as 0.52a^2b, where a and b are the minor and major axes of the tumour, respectively. The arithmetic means were calculated for each time point, counting cured tumours as zero volume. The growth delay was determined as the difference in the number of days required for the control versus treated tumours to increase four times in volume. […]

[1] = DMXAA plasma pharmacokinetic studies (HPLC assay); format: in vivo, mice
Experimental: as §1
Diclofenac (Sigma) was dissolved in dimethylsulphoxide, and was injected i.p. into mice in a volume of 25 μl per 10 g body weight. The required dose of diclofenac was injected concurrently with DMXAA.

human tumours = settings: Phase I clinical trials; well-tolerated doses; cited from earlier work
[2] = tested on: tumours or human tumour xenografts; settings: preclinical studies; cited from earlier work
[3] = cited from earlier work
[4] = tested on: 6-methylhydroxylation of DMXAA; settings: diclofenac 100 μM; mouse and human microsomes; cited from earlier work
glucoronidation of DMXAA = settings: diclofenac 100 μM; mouse and human microsomes; cited from earlier work

Structure (SMILES)	mice cured (colon 38 tumours; s.c. colon 38 tumours, DMXAA 25 mg/kg alone or with diclofenac 5 mg/kg i.p., 5 mice per group)	AUC ([1]; mouse, plasma, ip, 0-6 hours, DMXAA 25 mg/kg i.p. alone or with diclofenac 5 mg/kg) [µM·h]	half-life ([1]; mouse, plasma, ip, DMXAA 25 mg/kg i.p. alone or with diclofenac 5 mg/kg) [h]	tumour blood flow (dynamic MRI) (human tumours)	tumour blood flow [2]	effect on the growth of colon 38 tumours (colon 38 tumours; diclofenac alone 5 mg/kg i.p.)	effect on DMXAA plasma concentrations ([1]; 3 hours after administration, DMXAA 25 mg/kg with diclofenac doses below 100 mg/kg)	increase in the plasma DMXAA AUC ([3]; diclofenac 100 mg/kg i.p., female mice) [%]	increase in DMXAA T1/2 ([3]; diclofenac 100 mg/kg i.p., male and female mice, P<0.05)	increase in the plasma DMXAA AUC ([3]; diclofenac 100 mg/kg i.p., male mice) [%]	increase in the plasma concentration and AUC of DMXAA ([3]; diclofenac 100 mg/kg, mice)	inhibition of 6-methylhydroxylation of DMXAA [4] [%]	inhibition of glucoronidation of DMXAA (glucoronidation of DMXAA) [%]
Cc1ccc2c(=O)c3cccc(CC(=O)O)c3oc2c1C [DMXAA, 5,6-dimethylxanthenone-4-acetic acid]	none of the mice were cured; also recorded: no cure	1330	2.7	significant reduction in tumour blood flow	prolonged inhibition of tumour blood flow								
O=C(O)Cc1ccccc1Nc1c(Cl)cccc1Cl [diclofenac, 2-[(2,6-dichlorophenyl)amino]benzeneacetic acid]						no significant effect	no significant effect	31	threefold increase	24	24-31%	> 54	> 70
